Measurements published in patent US20220332700A1, “NOVEL APOPTOSIS SIGNAL-REGULATING KINASE 1 INHIBITORS” (MANKIND PHARMA LTD, priority 2019, published 2022).
Where two headings read alike, the source gives them in different places.

Key:
[1] = biological target: T1, recombinant ASK1 (Homo sapiens, UniProt Q99683); assay: ASK1 Biochemical Assay (HTRF KinEASE-STK S3)
T1 construct: purchased Carna Biosciences
Outline: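 Recombinant ASK1 (5 ng) preincubated with compound 1 h at 23 °C in MOPS pH 7 buffer with Mg-acetate, DTT, NP40, glycerol, BSA and 1% DMSO. Inhibition calculated against vehicle after substrate-blank subtraction.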

[2] = biological target: T2, ASK2 (Homo sapiens, UniProt O95382); assay: ASK2 biochemical assay (selectivity assay); settings: ATP 100 μM
T2 construct: purchased Carna Biosciences
T2 sequence (O95382 1-1288): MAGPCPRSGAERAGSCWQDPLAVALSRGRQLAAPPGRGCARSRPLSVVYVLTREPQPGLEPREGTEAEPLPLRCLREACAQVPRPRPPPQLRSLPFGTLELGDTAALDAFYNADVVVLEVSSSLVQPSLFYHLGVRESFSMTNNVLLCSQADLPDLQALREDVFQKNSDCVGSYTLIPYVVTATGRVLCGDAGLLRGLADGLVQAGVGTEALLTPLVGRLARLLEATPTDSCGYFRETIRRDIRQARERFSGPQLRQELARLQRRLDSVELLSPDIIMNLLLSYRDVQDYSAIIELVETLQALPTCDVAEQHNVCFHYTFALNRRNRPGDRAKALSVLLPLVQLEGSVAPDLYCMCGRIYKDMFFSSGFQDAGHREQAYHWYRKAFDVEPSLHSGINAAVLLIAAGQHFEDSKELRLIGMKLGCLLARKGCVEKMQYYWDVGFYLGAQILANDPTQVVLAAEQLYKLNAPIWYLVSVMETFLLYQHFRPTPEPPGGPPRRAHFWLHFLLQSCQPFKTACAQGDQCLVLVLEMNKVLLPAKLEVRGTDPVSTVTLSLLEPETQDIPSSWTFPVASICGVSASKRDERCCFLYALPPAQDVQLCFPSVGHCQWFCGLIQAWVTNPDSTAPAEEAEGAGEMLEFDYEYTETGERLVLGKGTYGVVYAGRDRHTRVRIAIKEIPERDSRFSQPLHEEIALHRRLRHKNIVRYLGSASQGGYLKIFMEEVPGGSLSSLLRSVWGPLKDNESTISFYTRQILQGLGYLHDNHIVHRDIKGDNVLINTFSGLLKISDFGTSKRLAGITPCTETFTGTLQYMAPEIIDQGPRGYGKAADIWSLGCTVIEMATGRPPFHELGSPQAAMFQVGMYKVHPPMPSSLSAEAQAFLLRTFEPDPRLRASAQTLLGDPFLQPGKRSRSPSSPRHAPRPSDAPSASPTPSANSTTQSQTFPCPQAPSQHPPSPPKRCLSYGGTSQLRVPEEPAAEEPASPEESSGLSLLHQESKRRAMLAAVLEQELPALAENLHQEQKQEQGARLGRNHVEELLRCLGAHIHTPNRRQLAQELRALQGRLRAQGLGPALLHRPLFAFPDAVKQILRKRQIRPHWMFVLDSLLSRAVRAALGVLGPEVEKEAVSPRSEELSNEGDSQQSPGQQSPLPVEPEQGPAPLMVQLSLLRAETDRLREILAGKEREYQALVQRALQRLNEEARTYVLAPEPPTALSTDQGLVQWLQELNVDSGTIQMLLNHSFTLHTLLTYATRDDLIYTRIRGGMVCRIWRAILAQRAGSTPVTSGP
Description: ASK2 assay was performed to evaluate above mentioned example for its selectivity towards ASK1 with respect ASK 2.
ASK2 biochemical assay was standardized using ASK2 (Carna Biosciences), MBP biotin conjugate (Merk life science), ATP, streptavidin surelight APC (PerkinElmer) and Lance Eu-W1024-antiphospho threonine (PerkinElmer). Enzyme concentration, ATP, MBP biotin conjugate and antibodies were titrated for enzyme assay. Assay was carried out in freshly prepared ASK2 kinase buffer, 5 mM MOPS pH-7.2, 2.5 mM β-glycerophosphate, 5 mM magnesium chloride (MgCl2), 1 mM EGTA, 0.4 mM EDTA, 0.05 mM DTT and 0.05% BSA. DMSO was used as vehicle control with a final concentration of 1%. A 40 ng of ASK2 enzyme was incubated with compound for 1 hour at 23° C. on a shaker at 100rpm. ATP and MBP biotin conjugate (as substrate) was added at a final concentration of 100 μM and 0.1mg/ml respectively and incubated for 3 hours at 23° C. on a shaker at 100rpm. Detection reagents streptavidin surelight APC (55.56nM), lance Eu-W1024-antiphospho threonine antibody (1.11nM) and 1X lance detection buffer were added and incubated for 2 hour at room temperature on a shaker at 100rpm. Delta F ratios were calculated from data obtained at excitation (337 nm) and emission wavelengths (665 nm and 620-10 nm). Substrate blank values were considered as negative control. Values from negative control were subtracted from vehicle control and compound treated wells. Enzyme inhibition by compounds was calculated from vehicle controls, which represent uninterrupted enzyme's activity.

[3] = ATP 100 μM, read-out: Biochemical Assay IC50
[4] = comparison with Selonsertib, read-out: ASK1 biochemical Assay (IC50)
[5] = selectivity table, read-out: ASK1 Biochemical Assay IC50

T1 sequence (Q99683 654-971 limits assumed): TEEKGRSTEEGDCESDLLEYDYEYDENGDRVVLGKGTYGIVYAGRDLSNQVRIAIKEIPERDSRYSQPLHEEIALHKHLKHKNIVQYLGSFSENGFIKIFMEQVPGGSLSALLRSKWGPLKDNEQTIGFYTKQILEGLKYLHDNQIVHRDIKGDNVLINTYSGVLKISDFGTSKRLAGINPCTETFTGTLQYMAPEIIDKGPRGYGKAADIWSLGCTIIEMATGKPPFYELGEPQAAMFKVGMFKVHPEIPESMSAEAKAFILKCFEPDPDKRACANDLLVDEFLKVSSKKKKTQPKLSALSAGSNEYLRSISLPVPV

IC50 [1, 3] [nM] | IC50 [1, 4] [nM] | IC50 [1, 5] [nM] | IC50 [2] [nM] | Compound
< 100 | 4.1 | 4.1 | > 10000 | CC(C)n1cnnc1-c1cccc(N2CCN(c3ccc(N4CCOCC4)cc3)C2=O)n1 [Example 1043, 1-(6-(4-isopropyl-4H-1,2,4-triazol-3-yl)pyridin-2-yl)-3-(4-morpholinophenyl)imidazolidin-2-one]
< 100 | 3.8 | 3.8 | > 10000 | CC(C)n1cnnc1-c1cccc(N2CCN(c3ccc(N4CC(C#N)C4)cc3)C2=O)n1 [Example 1071, 1-(4-(3-(6-(4-isopropyl-4H-1,2,4-triazol-3-yl)pyridin-2-yl)-2-oxoimidazolidin-1-yl)phenyl)azetidine-3-carbonitrile]
< 50 | 1 | 1 | 8500 | CNC(=O)C1CCN(c2ccc(N3CCN(c4cccc(-c5nncn5C(C)C)n4)C3=O)cc2)CC1 [Example 1082, 1-(4-(3-(6-(4-isopropyl-4H-1,2,4-triazol-3-yl)pyridin-2-yl)-2-oxoimidazolidin-1-yl)phenyl)-N-methylpiperidine-4-carboxamide]
< 50 | 3.8 | 3.8 | 7900 | CC(C)n1cnnc1-c1cccc(N2CCN(c3ccc(N4CCC(C(=O)N(C)C)CC4)cc3)C2=O)n1 [Example 1097, 1-(4-(3-(6-(4-isopropyl-4H-1,2,4-triazol-3-yl)pyridin-2-yl)-2-oxoimidazolidin-1-yl)phenyl)-N,N-dimethylpiperidine-4-carboxamide]
